Results reported in PubChem BioAssay (NCI).
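1) Cells in 96-well plates. 2) Compound, 48 h, 5 concentrations. 3) Linear interpolation between surrounding doses. 4) Unreached endpoint = highest concentration. TGI denotes the concentration required for complete inhibition of growth.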

Key:
Assay in all cases: NCI-60 cell line screen, 48 h
[1] = system: SK-OV-3 ovarian
[2] = system: A549 NSCLC
[3] = system: MDA-N
[4] = system: BT-549 breast
[5] = system: M14 melanoma
[6] = system: HCT-116 colon
[7] = system: NCI/ADR-RES ovarian
[8] = system: HL-60(TB) leukemia
[9] = system: HOP-62 NSCLC
[10] = system: TK-10 renal
[11] = system: SN12C renal
[12] = system: RPMI-8226 leukemia
[13] = system: LOX IMVI melanoma
[14] = system: HCT-15 colon
[15] = system: OVCAR-8 ovarian
[16] = system: SK-MEL-28 melanoma
[17] = system: COLO 205 colon
[18] = system: SF-539 CNS
[19] = system: SK-MEL-5 melanoma
[20] = system: OVCAR-3 ovarian
[21] = system: DU-145 prostate
[22] = system: KM12 colon
[23] = system: MALME-3M melanoma
[24] = system: K-562 leukemia
[25] = system: HT29 colon
[26] = system: OVCAR-4 ovarian
[27] = system: U251 CNS
[28] = system: UACC-257 melanoma
[29] = system: HOP-92 NSCLC
[30] = system: 786-0 renal
[31] = system: MDA-MB-231 breast
[32] = system: NCI-H522 lung
[33] = system: SF-295 CNS
[34] = system: SW-620 colon
[35] = system: SNB-19 CNS
[36] = system: SF-268 CNS
[37] = system: MCF7 breast
[38] = system: HCC-2998 colon
[39] = system: SR leukemia
[40] = system: OVCAR-5 ovarian
[41] = system: HS 578T breast
[42] = system: MOLT-4 leukemia
[43] = system: SNB-75 CNS
[44] = system: MDA-MB-435
[45] = system: NCI-H23 lung
[46] = system: PC-3 prostate
[47] = system: CAKI-1 renal
[48] = system: ACHN renal
[49] = system: RXF 393 renal
[50] = system: IGROV1 ovarian
[51] = system: CCRF-CEM leukemia
[52] = system: EKVX NSCLC
[53] = system: NCI-H226 lung
[54] = system: SK-MEL-2 melanoma
[55] = system: A498 renal
[56] = system: NCI-H460 lung
[57] = system: UO-31 renal

## OCCN1c2ccccc2Sc2ccccc21
[1]
  TGI: > 10 µM
[2]
  TGI: > 10 µM
[3]
  TGI: > 10 µM
[4]
  TGI: > 10 µM
[5]
  TGI: > 10 µM
[6]
  TGI: > 10 µM
[7]
  TGI: > 10 µM
[8]
  TGI: > 10 µM
[9]
  TGI: > 10 µM
[10]
  TGI: > 10 µM
[11]
  TGI: > 10 µM
[12]
  TGI: > 10 µM
[13]
  TGI: > 10 µM
[14]
  TGI: > 10 µM
[15]
  TGI: > 10 µM
[16]
  TGI: > 10 µM
[17]
  TGI: > 10 µM
[18]
  TGI: > 10 µM
[19]
  TGI: > 10 µM
[20]
  TGI: > 10 µM
[21]
  TGI: > 10 µM
[22]
  TGI: > 10 µM
[23]
  TGI: > 10 µM
[24]
  TGI: > 10 µM
[25]
  TGI: > 10 µM
[26]
  TGI: > 10 µM
[27]
  TGI: > 10 µM
[28]
  TGI: > 10 µM
[29]
  TGI: > 10 µM
[30]
  TGI: > 10 µM
[31]
  TGI: > 10 µM
[32]
  TGI: > 10 µM
[33]
  TGI: > 10 µM
[34]
  TGI: > 10 µM
[35]
  TGI: > 10 µM
[36]
  TGI: > 10 µM
[37]
  TGI: > 10 µM
[38]
  TGI: > 10 µM
[39]
  TGI: > 10 µM
[40]
  TGI: > 10 µM
[41]
  TGI: > 10 µM
[42]
  TGI: > 10 µM
[43]
  TGI: > 10 µM
[44]
  TGI: > 10 µM
[45]
  TGI: > 10 µM
[46]
  TGI: > 10 µM
[47]
  TGI: > 10 µM
[48]
  TGI: > 10 µM

## CS(=O)(=O)N1CC(CI)c2ccc(O)cc21 (stereo unspecified)
[2]
  TGI: 17 µM
[3]
  TGI: 6.4 µM
[4]
  TGI: 15.6 µM
[6]
  TGI: 12.6 µM
[49]
  TGI: 3.44 µM
[7]
  TGI: 18 µM
[8]
  TGI: 6.09 µM
[50]
  TGI: 29.3 µM
[9]
  TGI: 7.62 µM
[10]
  TGI: 7.3 µM
[11]
  TGI: 15.8 µM
[12]
  TGI: 19.1 µM
[13]
  TGI: 17.2 µM
[14]
  TGI: 12.3 µM
[15]
  TGI: 11.7 µM
[51]
  TGI: 17.4 µM
[16]
  TGI: 14.3 µM
[17]
  TGI: 12.3 µM
[18]
  TGI: 8.66 µM
[19]
  TGI: 3.26 µM
[20]
  TGI: 7.71 µM
[21]
  TGI: 9.36 µM
[22]
  TGI: 15 µM
[52]
  TGI: 14.4 µM
[23]
  TGI: 4.43 µM
[24]
  TGI: 24.2 µM
[25]
  TGI: 15.9 µM
[26]
  TGI: 5.95 µM
[27]
  TGI: 10 µM
[29]
  TGI: 6.31 µM
[53]
  TGI: 10.7 µM
[30]
  TGI: 12.7 µM
[31]
  TGI: 8.53 µM
[32]
  TGI: 2.99 µM
[33]
  TGI: 13.4 µM
[54]
  TGI: 5.49 µM
[36]
  TGI: 16.1 µM
[37]
  TGI: 15.1 µM
[38]
  TGI: 4.69 µM
[39]
  TGI: 7.33 µM
[41]
  TGI: > 100 µM
[55]
  TGI: 7.46 µM
[42]
  TGI: 9.65 µM
[43]
  TGI: 6.02 µM
[44]
  TGI: 4.2 µM
[56]
  TGI: 10.9 µM
[57]
  TGI: 11.6 µM
[45]
  TGI: 5.32 µM
[46]
  TGI: 6.51 µM
[47]
  TGI: 12.9 µM
[48]
  TGI: 12.9 µM

## O=C(O)CNC(=O)C(CSC(=O)OCC1c2ccccc2-c2ccccc21)NC(=O)CCC(NC(=O)OCC1c2ccccc2-c2ccccc21)C(=O)O (stereo unspecified)
[1]
  TGI: > 100 µM
[2]
  TGI: 28 µM
[3]
  TGI: 82.3 µM
[4]
  TGI: > 100 µM
[5]
  TGI: > 100 µM
[6]
  TGI: 32.6 µM
[49]
  TGI: 34.7 µM
[7]
  TGI: 33.7 µM
[8]
  TGI: > 100 µM
[50]
  TGI: 26.8 µM
[9]
  TGI: 28.9 µM
[10]
  TGI: 56 µM
[11]
  TGI: 30.7 µM
[12]
  TGI: 46.4 µM
[13]
  TGI: 0.577 µM
[14]
  TGI: 64.8 µM
[15]
  TGI: 32.4 µM
[51]
  TGI: 41.2 µM
[16]
  TGI: > 100 µM
[17]
  TGI: 31.1 µM
[18]
  TGI: 30.6 µM
[19]
  TGI: > 100 µM
[20]
  TGI: > 100 µM
[21]
  TGI: 28.6 µM
[52]
  TGI: 32.2 µM
[23]
  TGI: 59.4 µM
[24]
  TGI: 39.2 µM
[26]
  TGI: 29.5 µM
[28]
  TGI: > 100 µM
[29]
  TGI: 36.3 µM
[53]
  TGI: > 100 µM
[30]
  TGI: 9.13 µM
[31]
  TGI: 31.9 µM
[32]
  TGI: 3.52 µM
[33]
  TGI: 30.5 µM
[54]
  TGI: > 100 µM
[34]
  TGI: 35.1 µM
[35]
  TGI: > 100 µM
[36]
  TGI: 33.1 µM
[37]
  TGI: > 100 µM
[38]
  TGI: > 100 µM
[39]
  TGI: 15.4 µM
[40]
  TGI: > 100 µM
[41]
  TGI: > 100 µM
[42]
  TGI: 45.4 µM
[44]
  TGI: 34.1 µM
[56]
  TGI: 34.2 µM
[57]
  TGI: 33 µM
[45]
  TGI: > 100 µM
[46]
  TGI: 28.9 µM
[47]
  TGI: 15.7 µM
[48]
  TGI: 32.8 µM
